The values below come from US20220227782A1, “COMPOUND FOR INHIBITING RORyt ACTIVITY, PREPARATION METHOD THEREFOR AND APPLICATION THEREOF” (CELLREGEN (BEIJING) LIFE SCIENCE AND TECHNOLOGY CO., LTD., priority 2019, published 2022).

As a reminder, the CC50 is the concentration at which the toxic effect on the cells reaches its halfway point. High values mean lower toxicity to the cells, low ones greater toxicity to the cells. As a reminder, the pEC50 is −log10 of the EC50, conventionally taken in molar units. A lower pEC50 goes with a high EC50.

Series [1] is described as follows: CC50 test, median cytotoxic concentration against RORγt-LBD+-Jurkat cells. The class given is cell-based. Particulars: human. An excerpt: (§1) EC50 and CC50 tests: EC50 (half maximal (50%) effective concentration) is a half maximal effective concentration against RORγt-LBD+-Jurkat cells, and CC50 (median (50%) cytotoxic concentration) is a median cytotoxic concentration against RORγt-LBD+-Jurkat cells.

The target of another series is T1, RORγt (Homo sapiens, UniProt P51449).
T1 construct: half maximal effective concentration against RORγt-LBD+-Jurkat cells; expressed in transfected cells; host or cells: Jurkat
T1 sequence (P51449 269-508 limits assumed): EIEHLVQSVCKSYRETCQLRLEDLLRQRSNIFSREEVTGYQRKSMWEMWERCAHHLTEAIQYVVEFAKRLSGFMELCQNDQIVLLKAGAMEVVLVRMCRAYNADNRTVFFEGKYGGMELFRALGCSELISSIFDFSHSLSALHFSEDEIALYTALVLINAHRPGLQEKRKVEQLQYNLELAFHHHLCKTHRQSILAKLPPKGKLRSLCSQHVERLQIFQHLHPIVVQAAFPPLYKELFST
Kind of series: EC50 test, inhibition of RORγt transcription activity (luciferase activity reporter system) in RORγt-LBD+-Jurkat cells. In kind it is cell-based. The note with it: for pEC50: half maximal effective concentration against RORγt-LBD+-Jurkat cells.
Excerpt: as §1

The test system of a further series is Th17 cells. The note with it: cited from earlier work.
The next series has as its system EAE. The note with it: high concentrations (40 mg/kg); cited from earlier work.
The subject of a further series is other RORs. The note with it: cited from earlier work.
Series [2] deals with RORγt, IL17A, IL-17F mRNA. Put plainly: mRNA expression of RORγt, IL17A and IL-17F in Th17 cell differentiation in vitro. The class given is cell-based. The note with it: FIG. 22, 1.56, 3.12 and 6.25 μM compound vs solvent group. The procedure: (§2) In the figure, the results of solvent group, 1.56 μM compound group, 3.12 μM compound group, and 6.25 μM compound group are shown from left to right.

In a further series the test system is IL-17A. Put plainly: Intracellular protein expression of IL-17A (flow cytometer), Th17 cells. In kind it is cell-based. Particulars: FIG. 21; 1.56, 3.12 and 6.25 μM compound vs solvent group.
Excerpt: The compound for inhibiting RORγt activity as described above may be used in preparation of a therapeutic formulation for the treatment of autoimmune diseases, in preparation of a formulation that inhibits formation of a Th17 cell, in preparation of a formulation that inhibits the RORγt transcription activity, or in preparation of a formulation that inhibits transcription and expression of IL17A gene and/or IL17F gene. The compounds having the structural formula (A) has a good inhibitory effect on RORγt activity. […] Therefore, the compound may be used to produce a formulation of corresponding activity inhibitor, and provide a leading structure for the development of therapeutic drugs for autoimmune diseases.
as §2
(A flow cytometer gives signals particle by particle.)

pEC50: −log10 of the molar value.

For `Cc1nc(Sc2nnnn2-c2ccccc2)c2c3c(sc2n1)CC(C(=O)Nc1cccnc1)CC3` (stereo not drawn) [Compound 23], in series [1], the CC50 was below 5 µM. The same compound showed a pEC50 at RORγt below 5.00.
In series [1], `CCCC1CCc2c(sc3nc(C)nc(Sc4nnnn4-c4ccccc4)c23)C1` (stereo not drawn) [Compound 9] registered a CC50 above 10 µM. At RORγt, the pEC50 is below 5.00.
Taken in the same sequence, the figures for `Cc1nc(Sc2nnnn2-c2ccccc2)c2c3c(sc2n1)CC(C(=O)O)CC3` (stereo not drawn) [Compound 14] were above 10 µM and below 4.70.
For the compound `Cc1nc(Sc2nnnn2-c2ccccc2)c2c3c(sc2n1)CC(C(C)(C)C)CC3` (stereo not drawn) [Compound 11], the CC50 in series [1] was below 1 µM. Also, at RORγt, the pEC50 was 5.08.
Taken in the same sequence, the figures for `Cc1cccc(NC(=O)C2CCc3c(sc4nc(C)nc(Sc5nnnn5-c5ccccc5)c34)C2)c1` (stereo not drawn) [Compound 16] were below 10 µM and below 5.00.
Taken in the same sequence, the figures for `Cc1nc(Sc2nnnn2-c2ccccc2)c2c3c(sc2n1)CC(C(=O)Nc1nc2ccc(F)cc2s1)CC3` (stereo not drawn) [Compound 25] were below 5 µM and below 5.00.
`Cc1nc(Sc2nnnn2-c2ccccc2)c2c3c(sc2n1)CC(C(=O)Nc1ccc(C(C)C)cc1)CC3` (stereo not drawn) [Compound 17]: the cytotoxic concentration (CC50) in series [1] is below 1 µM. The compound further had a pEC50 on RORγt below 5.00.
Taken in the same sequence, the figures for `Cc1nc(Sc2nnnn2-c2ccccc2)c2c3c(sc2n1)CC(C(=O)NC1CCOCC1)CC3` (stereo not drawn) [Compound 15] were below 10 µM and below 5.00.
In turn, `Cc1nc(Sc2nnnn2-c2ccccc2)c2c3c(sc2n1)CC(C(=O)Nc1ccc(Br)cc1)CC3` (stereo not drawn) [Compound 20] registered a CC50 in series [1] below 10 µM. At RORγt, this compound showed a pEC50 below 5.00.
With `CC(=O)Nc1nc(C)c(S(=O)(=O)Nc2ccc(C(O)(C(F)(F)F)C(F)(F)F)cc2)s1` [SR1001], the “inhibition of differentiation of Th17 cells in vitro” value with Th17 cells was “effectively inhibit the differentiation of Th17 cells”. Moreover, the “reduction of clinical symptoms of EAE in vivo” value in the series on EAE was “only reduce the clinical symptoms of EAE slightly”. Besides, the “selectivity (interaction with other RORs)” value in the series on other RORs is “poor selectivity”.
`Cc1nc(Sc2nnnn2-c2ccccc2)c2c3c(sc2n1)CC(F)(F)CC3` [Compound 12] returned a CC50 in series [1] below 1 µM. This compound also showed a pEC50 at RORγt of 5.87.
Consider `Cc1nc(Sc2nnnn2-c2ccccc2)c2c3c(sc2n1)CC(C(=O)Nc1cccc(Cl)c1)CC3` (stereo not drawn) [Compound 19], for which, in series [1], the CC50 was below 10 µM. In addition, the negative-log EC50 (pEC50) on RORγt was below 5.00.
Turning to `Cc1nc(Sc2nnnn2-c2ccccc2)c2c3c(sc2n1)CCCC3` [Compound 6], the “inhibition of mRNA expression of RORγt, IL17A and IL-17F (in words)” value (from here on “inhibition of mRNA expression of RORγt”) in series [2] is given as “significant inhibitory effects”. The compound further yielded a CC50 in series [1] of 3.98 µM. At RORγt, the pEC50 is 5.55. The “inhibition of intracellular protein expression of IL-17A (in words)” value (“inhibition … of IL-17A (in words)” for short) in the series on IL-17A is reported as “significant inhibitory effects”.
In the case of `Cc1nc(Sc2nnnn2-c2ccccc2)c2c3c(sc2n1)CC(C(=O)NCc1ccccc1)CC3` (stereo not drawn) [Compound 18], the CC50 in series [1] was above 10 µM. The pEC50 at RORγt is 4.90.
As to `O=C(Cc1nc(Sc2nnnn2-c2ccccc2)c2c3c(sc2n1)CCCC3)Nc1nc2ccccc2[nH]1` [Compound 31], the “inhibition of mRNA expression of RORγt” value in series [2] is recorded as “significant inhibitory effects”. The CC50 in series [1] stood at 9.18 µM. Further, on RORγt (FIG. 20), the “inhibiting RORγt transcription activity (in words)” value was “significant effect”. For the same compound, the pEC50 at RORγt is 6.07. The “inhibition … of IL-17A (in words)” value with IL-17A is “significant inhibitory effects”.
With `Cc1nc(Sc2nnnn2-c2ccccc2)c2c3c(sc2n1)CC(C(=O)Nc1ccc(F)cn1)CC3` (stereo not drawn) [Compound 24], in series [1], the CC50 was below 10 µM. Moreover, on RORγt, the pEC50 was below 5.00.
In turn, `CCC1CCc2c(sc3nc(C)nc(Sc4nnnn4-c4ccccc4)c23)C1` (stereo not drawn) [Compound 8] gave a CC50 in series [1] above 10 µM. The compound also had a pEC50 on RORγt below 5.00.
Taken in the same sequence, the figures for `Cc1nc(Sc2nnnn2-c2ccccc2)c2c3c(sc2n1)CC(C(=O)Nc1nccs1)CC3` (stereo not drawn) [Compound 21] were below 10 µM and below 5.00.
Taken in the same sequence, the figures for `Cc1nc(Sc2nnnn2-c2ccccc2)c2c3c(sc2n1)CC(C)CC3` (stereo not drawn) [Compound 7] were above 10 µM and below 5.00.
On to `Cc1nc(Sc2nnnn2-c2ccccc2)c2c3c(sc2n1)CC(C(=O)Nc1ncc(C)s1)CC3` (stereo not drawn) [Compound 22], for which the “inhibition of mRNA expression of RORγt” value in series [2] is “significant inhibitory effects”. Also, the CC50 in series [1] was determined as 4.32 µM. At RORγt, the pEC50 was 5.04. In addition, the “inhibition … of IL-17A (in words)” value in the series with IL-17A is “significant inhibitory effects”.
